Source: article PMC11285368, “Chasing Red Herrings: Palladium Metal Salt Impurities Feigning KRAS Activity in Biochemical Assays” (Journal of Medicinal Chemistry, 2024)
Where two headings read alike, the source gives them in different places.

Legend:
[1] = molecular target: T1, KRAS^G12D(GTP)::CRAF (Homo sapiens, UniProt P01116, G12D); test: KRAS^G12D(GTP)::CRAF AlphaScreen; type: biochemical
T1 construct: KRAS^G12D 1–169, N-terminal 6His-tag, C-terminal avi-tag (Xtal BioStructures, Inc.); 6His (N); purchased Xtal BioStructures, Inc. (KRAS); Viva Biotech Ltd. (CRAF)
Protocol: The proteins have been used at these given final assay concentrations:
Test compounds dissolved in DMSO were dispensed onto assay plates (Proxiplate 384 PLUS, white, PerkinElmer; 6008289) using an Access Labcyte Workstation with the Labcyte Echo 555. For the chosen highest assay concentration of 100 μM, 150 nl of compound solution were transferred from a 10 mM DMSO compound stock solution. A series of 11 5-fold dilutions per compound was transferred to the assay plate, and compound dilutions were tested in duplicates. DMSO was added as backfill to a total volume of 150 nl. The assay was run on a fully automated robotic system in a darkened room below 100 Lux. […] After 60 min incubation time 5 μL of AlphaScreen bead mix in assay buffer were added into columns 1–23. Bead mix consisted of AlphaLISA Glutathione Acceptor Beads (PerkinElmer, cat. no. AL109) and Alpha-Screen Streptavidin Donor Beads (perkinElmer cat. no. 6760002) in assay buffer at a final assay concentration of 10 μg/mL each. Plates were kept at room temperature in a darkened incubator. After an additional 60 min incubation time the signal was measured on a PerkinElmer Envision HTS Multilabel Reader using the AlphaScreen specs from PerkinElmer.
IC50 values were calculated and analyzed with Boehringer Ingelheim’s MEGALAB IC50 application using a 4 parametric logistic model.

[2] = molecular target: biotinylated GST (Schistosoma japonicum, UniProt P08515); test: Control assay (AlphaScreen Shortcut); type: biochemical
Chain of biotinylated GST (P08515 whole entry): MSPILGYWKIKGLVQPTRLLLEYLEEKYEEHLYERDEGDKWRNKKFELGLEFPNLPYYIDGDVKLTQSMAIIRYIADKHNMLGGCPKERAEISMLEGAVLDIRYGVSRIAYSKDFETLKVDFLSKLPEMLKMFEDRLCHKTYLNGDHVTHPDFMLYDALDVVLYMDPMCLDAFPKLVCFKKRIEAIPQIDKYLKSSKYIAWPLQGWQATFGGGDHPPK
Protocol: This assay was developed to identify compounds that interfere with the assay format using AlphaLISA Glutathione Acceptor and AlphaScreen Streptavidin Donor beads. The assay was performed as described above using biotinylated GST as bridging reagent instead of KRAS^G12D and CRAF mix.

[3] = molecular target: KRAS^G12D(GCP) (Homo sapiens, UniProt P01116, G12D); test: KRAS STD-NMR; type: binding; settings: Batch 1; 10 μM KRAS^G12D(GCP), 1000 μM ligand; approximated visually
Protocol: Experiments were recorded with a saturation time Tsat of 2 s and a total recycle delay of 3.6 s with the standard Bruker pulse program stddiffgp19.2. The shaped pulse train was made of G4 pulses with a length of 50 ms at a power of 31 μW. Here on resonance saturation was applied at 100 Hz and off resonance at 20000 Hz. No spin locking was applied to reduce the protein background. Here, 256 scans were applied with a time domain of 32 000 and the watergate delay was set to 90 μs to reduce remaining HDO signal intensity. 10 μM KRAS^G12D(GCP) and 1000 μM ligand was added for the STD NMR experiments and the percent enhancements approximated visually since no additional analysis was performed.

[4] = molecular target: KRAS “on” (Homo sapiens, UniProt P01116); test: NMR-based fragment screen, KD (NMR); type: binding
[5] = Batch 1, read-out: KRAS^G12D(GTP)::CRAF AlphaScreen IC50
[6] = Batch 2 (resynthesized), read-out: KRAS^G12D(GTP)::CRAF AlphaScreen IC50
[7] = confirmation screen, read-out: IC50, KRAS^G12D(GTP)::CRAF high-throughput AlphaScreen
[8] = Control assay IC50, Batch 2 (resynthesized)

## O=C1NCCc2c1[nH]c1c(-c3ccoc3)cccc21 [Cmpd 3, 8-(Furan-3-yl)-2H,3H,4H,9H-pyrido[3,4-b]indol-1-one]
[1]; [5]
  IC50: 11 ± 1.5 µM
[1]; [6]
  IC50: 51.5 ± 3.5 µM
[1]; Batch 3 (NP repurified), read-out: KRAS^G12D(GTP)::CRAF AlphaScreen IC50
  IC50: 78.3 ± 2.9 µM
[1]; [7]
  IC50: 8.1 µM
[2]; Control assay IC50, Batch 1
  IC50: 34 ± 2.6 µM
[2]; [8]
  IC50: 69.7 ± 6.7 µM
[2]; Control assay IC50, Batch 3 (NP repurified)
  IC50: > 100 µM
[3]
  KRAS STD-NMR percent enhancement: 11%

## O=C1NCCc2c1[nH]c1c(-c3ccncc3)cccc21 [Cmpd 4, 8-(Pyridin-4-yl)-2H,3H,4H,9H-pyrido[3,4-b]indol-1-one]
[1]; [5]
  IC50: 8.6 ± 0.8 µM
[1]; [6]
  IC50: 77.3 ± 55.7 µM
[1]; [7]
  IC50: 6.3 µM
[2]; Control assay IC50, Batch 1
  IC50: > 100 µM
[2]; [8]
  IC50: > 100 µM
[3]
  KRAS STD-NMR percent enhancement: 7%

## c1ccc2c(Cc3nc4ccncc4[nH]3)c[nH]c2c1 [FBS Hit 1]
[1]; [5]
  IC50: > 100 µM
[4]
  Kd: 1200 µM
[2]; Control assay IC50, Batch 1
  IC50: > 100 µM

## Clc1ccc2[nH]c3c(c2c1)CNCC3 [FBS Hit 2]
[1]; [5]
  IC50: > 100 µM
[4]
  Kd: > 2000 µM
[2]; Control assay IC50, Batch 1
  IC50: > 100 µM
